{"source": "patent US20070276034A1", "about": "“Compounds, compositions and methods for the treatment of synucleinopathies” (priority 2002, published 2007)", "key": {"[1]": {"test_system": "BE-M17 human neuroblastoma cells overexpressing A53T α-synuclein", "assay": "Thioflavin S aggregation assay in rotenone-treated cells", "format": "cell-based", "settings": "500 nM, 1 μM or 5 μM rotenone (FIGS. 4A-E)", "from_the_text": "(§1) Therefore, to test the therapeutic potential of the compounds, two cell-based assays were utilized. In both assays, rotenone is used to induce mitochondrial oxidative stress and α-synuclein aggregation. The first assay utilizes the binding of the fluorescent dye thioflavin S to structures with high β-sheet content including α-synuclein fibrils. Therefore, quantitative assessment of the extent of thioflavin S-positive staining of fixed cells is used to test the ability of the compounds to decrease the amount of α-synuclein aggregates. In the second assay, cell viability is assessed using the XTT Cytotoxicity assay, which is dependent on intact, functional mitochondria in live cells. Thus, the XTT Cytotoxicity assay is used to test the ability of the compounds to ameliorate the mitochondrial toxicity and resulting loss of viability associated with the accumulation of α-synuclein aggregates. Phrased another way, the XTT Cytotoxicity assay is used to gauge the compounds neuroprotective efficacy. These studies are presented in the following examples.\n(§2) BE-M17 human neuroblastoma cells stably transfected with A53T-mutant human α-synuclein were obtained. Cell culture reagents were obtained from Gibco/Invitrogen, and cells were grown in OPTIMEM supplemented with 10% FBS, Penicillin (100 units/mil)-Streptomycin (100 μg/ml) and 500 μg/ml G418 as previously described (Ostrerova-Golts et al., J. Neurosci., 20:6048-6054, 2000).\nThioflavin S is commonly used to detect amyloid-containing structures in situ, including in brain tissue (Vallet et al., Acta Neuropathol., 83:170-178, 1992), and cultured cells (Ostrerova-Golts et al., J. Neurosci., 20:6048-6054, 2000), whereas thioflavin T is often used as an in vitro reagent to analyze the aggregation of soluble amyloid proteins into fibrils enriched in β-pleated sheet structures (LeVine III, Prot. Sci., 2:404-410, 1993). Therefore, Thioflavin S histochemistry was used on cultured cells to detect aggregates containing a high degree of […] structures that formed in response to oxidative stress-inducing agents (in this case rotenone) as previously described, with minor modifications (Ostrerova-Golts et al., J. Neurosci, 20:6048-6054, 2000). Briefly, for these studies, cells were grown on Poly-D-Lysine coated glass slide chambers at approximately 3×10^4 cells/cm^2. After 24 hours, cells were treated with 500 nM, 1 μM or 5 μM rotenone (Sigma) or vehicle (0.05% DMSO) as indicated. Immediately after rotenone (or vehicle) addition, compounds were added at the indicated concentration, or cell culture media only (no compound) in the presence of rotenone was added. Identical treatments were repeated after 48 hours. After an additional 48 hours, cells were fixed for 25 minutes in 3% paraformaldehyde. After a PBS wash, the cells were incubated with 0.015% thioflavin S in 50% ethanol for 25 minutes, washed twice for four minutes in 50% ethanol and twice for five minutes in deionized water and then mounted using an aqueous-based mountant designed to protect against photobleaching. Aggregates that bind to thioflavin S were detected with a fluorescent microscope using a High Q FITC filter set (480 to 535 nm bandwidth) and a 20× objective lens unless otherwise indicated. Between 8 and 16 representative images per condition were selected, imaged and processed by an experimenter who was blinded to treatment conditions. To assess the amount of thioflavin S-positive aggregates, the total area per field covered by thioflavin S-positive inclusions was determined. […] Spurious, non-cell associated fluorescence was manually removed. Unless indicated otherwise, data represent group means ±SEM. Statistical analyses were performed with GraphPad Prism (GraphPad Inc). Differences between means (two samples) were assessed by the […]. Differences among multiple means were assessed by one-factor ANOVA followed by Tukey's multiple comparison test."}, "[2]": {"test_system": "A53T α-synuclein-expressing BE-M17 cells", "assay": "XTT Cytotoxicity assay - protection against rotenone-induced cytotoxicity", "format": "cell-based", "settings": "40-44 hours", "from_the_text": "as §1, §2\nResearch has shown that the accumulation of α-synuclein fibrils in Lewy bodies contributes mechanistically to the degradation of neurons in Parkinson's disease and related disorders (Polymeropoulos et al., Science 276:2045-2047, 1997; Kruger et al., Nature Genet. 18:106-108, 1998). Here, the XTT Cytotoxicity assay (hereafter referred to as the XTT assay) was used to measure the ability of test compounds to protect against rotenone-induced cytotoxicity (neuroprotective ability). The assay is based on the principle that conversion of the yellow tetrazolium salt XTT to form an orange formazan dye (that absorbs light around 490 nm) occurs only in metabolically active, viable cells. Therefore, light absorbance at 490 nm is proportional to cell viability. For this assay, cells were plated in 96 well tissue culture dishes at 10^4 cells per well. After 24 hours, cells were treated with 500 nM or 2 μM rotenone, or vehicle (0.05% DMSO) as indicated. Immediately after rotenone addition, compounds were added at the indicated concentration. […] Untreated cells received cell culture media only (no compound, with or without rotenone). After 40-44 hours of treatment, conditioned media was removed and replaced with 100 μl fresh media and 50 μl XTT labeling reaction mixture according to the manufacturer's recommendations. Four to five hours later, the absorbance at 490 nm was measured and corrected for absorbance at the 700 nm reference wavelength. […] Percent inhibition of cell death was calculated as the proportion of the rotenone-induced absorbance (viability) decrease that was eliminated by test compound treatment."}}}
{"smiles": "C=C(C)[C@H]1Cc2c(ccc3c2O[C@@H]2COc4cc(OC)c(OC)cc4[C@@H]2C3=O)O1", "note": "[rotenone, reference compound]", "values": [{"measurement": "thioflavin S-positive aggregates relative to vehicle-treated control cells", "setting": "[1]", "value": "dose-dependent increase in thioflavin S-positive aggregates"}, {"measurement": "decrease of viability relative to untreated cells", "setting": "[2]; 500 nM rotenone", "value": "30-40%"}, {"measurement": "decrease of viability relative to untreated cells", "setting": "[2]; 2 μM rotenone", "value": "40-50%"}]}
